Here are results for 17 compounds from PubChem BioAssay (NCI).

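1) Cells in 96-well plates. 2) Compound, 48 h, 5 concentrations. 3) Linear interpolation between surrounding doses. 4) Unreached endpoint = highest concentration. GI50 = concentration required for 50% inhibition of growth. TGI: total growth inhibition.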

For the first assay, the system named is CAKI-1 renal. The experiment in a line: NCI anticancer screen, dose series, 48 h.
On to `CCCN(Cc1ccc(F)cc1)c1ccc(CO)c(Cl)c1`, for which the GI50 is 1.47 µM and the TGI stood at 13.6 µM.

As to `CCN=C1C=CC(=C(c2ccc(N(C)C)cc2)c2ccc(N(C)C)cc2)c2ccccc21`, the GI50 is 0.2 µM and the TGI was 0.52 µM.

For the compound `CCOC(=O)c1c2c(n(CC(C)C)c1C)-c1nc[nH]c1C(=O)C2=O`, the GI50 was 17.7 µM and the TGI amounted to 57.8 µM.

For the compound `CN(C)CCNC(=O)c1cccn2c(=O)c3cc4ccccc4cc3nc12`, the GI50 was 0.0711 µM and the TGI was 0.593 µM.

Consider `Cn1c(=O)c2[nH]c(/N=N/N3CCN(CCO)CC3)nc2n(C)c1=O`, for which the TGI is more than 100 µM.

With `COc1cc2cc(Oc3ccc(NC(=O)Nc4ccc(Cl)c(C(F)(F)F)c4)cc3)c(C)nc2cc1OCCN1CCCCC1`, the GI50 was 1.31 µM and the TGI turned out to be 2.64 µM.

With `COc1ccc2c(c1)CCC1C2CCC2(C)C1CCC2(O)CNC(=O)CCCCC1CCSS1` (stereo not given), the GI50 was 18.1 µM and the TGI is 40.2 µM.

With `COc1cc(Cn2cc3c(c2)-c2oncc2CC3)cc(OC)c1OC`, the GI50 is 0.0337 µM and the TGI is more than 42.1 µM.

`COc1ccc(C(=O)/C=C/c2ccc(Cl)cc2)cc1S(=O)(=O)Nc1c(N)nc(SC)[nH]c1=O`: the GI50 was 3.83 µM and the TGI worked out at 18.6 µM.

For `CC(C)(C(=O)NN)c1ccccc1`, the TGI is more than 100 µM.

On to `O=C1C(Cl)=C(N/N=c2/[nH][nH]/c(=N/NC3=C(Cl)C(=O)c4ccccc4C3=O)c3ccccc23)C(=O)c2ccccc21`, for which the GI50 was 17.7 µM and the TGI came out at 41.4 µM.

In another assay the test system is OVCAR-4 ovarian. The experiment in a line: NCI anticancer screen, dose series, 48 h.
In the case of `O=c1cc(CNc2cc(F)cc(F)c2)c2ccc(I)cc2[nH]1`, the GI50 is 72.7 µM and the TGI is more than 100 µM.

On to `CCCN(Cc1ccc(F)cc1)c1ccc(CO)c(Cl)c1`, for which the GI50 was 0.4 µM and the TGI was 7.9 µM.

`CCN=C1C=CC(=C(c2ccc(N(C)C)cc2)c2ccc(N(C)C)cc2)c2ccccc21`: the GI50 was 0.114 µM and the TGI was found to be 1.6 µM.

The compound `Nc1ncnc2c1ccn2C1OC2COP(=O)(O)OC2C1O` (stereo not given) showed a TGI of 9.6 µM.

For the compound `Cc1cc(N2CCCCC2)nc(N(CCNc2ccnc3cc(Cl)ccc23)Cc2ccco2)n1`, the GI50 is 1.8 µM and the TGI came out at 4.42 µM.

In turn, `O=C(O)[C@@H]1C2CC([C@@H]1C(=O)O)[C@H](N1C(=O)CCC1=O)[C@@H]2Br` (stereo not given in full) came in with a TGI of more than 100 µM.

On to `CCOC(=O)c1c2c(n(CC(C)C)c1C)-c1nc[nH]c1C(=O)C2=O`, for which the GI50 is 12.7 µM and the TGI is 25.3 µM.

In the case of `CN(C)CCNC(=O)c1cccn2c(=O)c3cc4ccccc4cc3nc12`, the GI50 was 0.323 µM and the TGI stood at 7.67 µM.

On to `Cn1c(=O)c2[nH]c(/N=N/N3CCN(CCO)CC3)nc2n(C)c1=O`, for which the TGI was more than 100 µM.

`c1ccc2nc(Cn3c[n+](Cc4ccc5ccccc5n4)c4ccccc43)ccc2c1`: the GI50 was 1.49 µM and the TGI came to 11.6 µM.

Regarding `COc1cc2cc(Oc3ccc(NC(=O)Nc4ccc(Cl)c(C(F)(F)F)c4)cc3)c(C)nc2cc1OCCN1CCCCC1`, the GI50 is 1.46 µM and the TGI stood at 3.29 µM.

As to `COc1ccc2c(c1)CCC1C2CCC2(C)C1CCC2(O)CNC(=O)CCCCC1CCSS1` (stereo not given), the GI50 is 6.92 µM and the TGI was found to be 45.9 µM.

`COc1cc(Cn2cc3c(c2)-c2oncc2CC3)cc(OC)c1OC`: the GI50 was 0.152 µM and the TGI is more than 100 µM.

For the compound `COc1ccc(C(=O)/C=C/c2ccc(Cl)cc2)cc1S(=O)(=O)Nc1c(N)nc(SC)[nH]c1=O`, the GI50 is 4.49 µM and the TGI was determined as 14.9 µM.

Consider `COc1ccc(Cn2nc(-c3cc(OC)c(OC)c(OC)c3)c3c2CCc2cnoc2-3)cc1OC`, for which the GI50 was 4.96 µM and the TGI came to 83.9 µM.

Consider `O=C1C(Cl)=C(N/N=c2/[nH][nH]/c(=N/NC3=C(Cl)C(=O)c4ccccc4C3=O)c3ccccc23)C(=O)c2ccccc21`, for which the GI50 was 12 µM and the TGI was 28.5 µM.

Another assay deals with NCI-H460 lung. The experiment in a line: NCI anticancer screen, dose series, 48 h.
Take `O=c1cc(CNc2cc(F)cc(F)c2)c2ccc(I)cc2[nH]1`: the GI50 is 0.427 µM and the TGI is more than 100 µM.

Regarding `CCCN(Cc1ccc(F)cc1)c1ccc(CO)c(Cl)c1`, the GI50 was 0.359 µM and the TGI was 11.5 µM.

Take `CCN=C1C=CC(=C(c2ccc(N(C)C)cc2)c2ccc(N(C)C)cc2)c2ccccc21`: the GI50 was 0.0657 µM and the TGI amounted to 0.572 µM.

`Nc1ncnc2c1ccn2C1OC2COP(=O)(O)OC2C1O` (stereo not given) showed a TGI of 12.9 µM.

`Cc1cc(N2CCCCC2)nc(N(CCNc2ccnc3cc(Cl)ccc23)Cc2ccco2)n1`: the GI50 is 1.76 µM and the TGI stood at 3.34 µM.

On to `O=C(O)[C@@H]1C2CC([C@@H]1C(=O)O)[C@H](N1C(=O)CCC1=O)[C@@H]2Br` (stereo not given in full), for which the TGI was more than 100 µM.

As to `CCOC(=O)c1c2c(n(CC(C)C)c1C)-c1nc[nH]c1C(=O)C2=O`, the GI50 was 16.5 µM and the TGI was determined as 30.1 µM.

On to `CN(C)CCNC(=O)c1cccn2c(=O)c3cc4ccccc4cc3nc12`, for which the GI50 is 0.0439 µM and the TGI turned out to be 0.283 µM.

Turning to `Cn1c(=O)c2[nH]c(/N=N/N3CCN(CCO)CC3)nc2n(C)c1=O`, the TGI is more than 100 µM.

For `c1ccc2nc(Cn3c[n+](Cc4ccc5ccccc5n4)c4ccccc43)ccc2c1`, the GI50 was 2.8 µM and the TGI amounted to 12.3 µM.

For the compound `COc1cc2cc(Oc3ccc(NC(=O)Nc4ccc(Cl)c(C(F)(F)F)c4)cc3)c(C)nc2cc1OCCN1CCCCC1`, the GI50 is 1.85 µM and the TGI is 3.47 µM.

As for `COc1ccc2c(c1)CCC1C2CCC2(C)C1CCC2(O)CNC(=O)CCCCC1CCSS1` (stereo not given), the GI50 is 3.25 µM and the TGI is more than 100 µM.

With `COc1cc(Cn2cc3c(c2)-c2oncc2CC3)cc(OC)c1OC`, the GI50 was 0.034 µM and the TGI amounted to 1.5 µM.

As for `COc1ccc(C(=O)/C=C/c2ccc(Cl)cc2)cc1S(=O)(=O)Nc1c(N)nc(SC)[nH]c1=O`, the GI50 is 2.49 µM and the TGI is 6.29 µM.

For the compound `CC(C)(C(=O)NN)c1ccccc1`, the TGI was more than 100 µM.

Consider `COc1ccc(Cn2nc(-c3cc(OC)c(OC)c(OC)c3)c3c2CCc2cnoc2-3)cc1OC`, for which the GI50 is 3.28 µM and the TGI was more than 100 µM.

Regarding `O=C1C(Cl)=C(N/N=c2/[nH][nH]/c(=N/NC3=C(Cl)C(=O)c4ccccc4C3=O)c3ccccc23)C(=O)c2ccccc21`, the GI50 is 19.7 µM and the TGI amounted to 49.5 µM.

The subject of a further assay is LOX IMVI melanoma. In words: NCI anticancer screen, dose series, 48 h.
With `O=c1cc(CNc2cc(F)cc(F)c2)c2ccc(I)cc2[nH]1`, the GI50 is 0.679 µM and the TGI is more than 100 µM.

On to `CCCN(Cc1ccc(F)cc1)c1ccc(CO)c(Cl)c1`, for which the GI50 was 9.49 µM and the TGI worked out at 21.9 µM.

In the case of `CCN=C1C=CC(=C(c2ccc(N(C)C)cc2)c2ccc(N(C)C)cc2)c2ccccc21`, the GI50 was 0.0528 µM and the TGI was 1.01 µM.

`Nc1ncnc2c1ccn2C1OC2COP(=O)(O)OC2C1O` (stereo not given): the TGI is 1.34 µM.

`Cc1cc(N2CCCCC2)nc(N(CCNc2ccnc3cc(Cl)ccc23)Cc2ccco2)n1`: the GI50 was 1.66 µM and the TGI was determined as 3.09 µM.

In turn, `O=C(O)[C@@H]1C2CC([C@@H]1C(=O)O)[C@H](N1C(=O)CCC1=O)[C@@H]2Br` (stereo not given in full) registered a TGI of more than 100 µM.

In the case of `CCOC(=O)c1c2c(n(CC(C)C)c1C)-c1nc[nH]c1C(=O)C2=O`, the GI50 is 7.91 µM and the TGI amounted to 20.5 µM.

As for `CN(C)CCNC(=O)c1cccn2c(=O)c3cc4ccccc4cc3nc12`, the GI50 is 0.0624 µM and the TGI worked out at 0.286 µM.

As to `Cn1c(=O)c2[nH]c(/N=N/N3CCN(CCO)CC3)nc2n(C)c1=O`, the TGI is more than 100 µM.

`c1ccc2nc(Cn3c[n+](Cc4ccc5ccccc5n4)c4ccccc43)ccc2c1`: the GI50 is 1.91 µM and the TGI came out at 7.8 µM.

As to `COc1ccc2c(c1)CCC1C2CCC2(C)C1CCC2(O)CNC(=O)CCCCC1CCSS1` (stereo not given), the GI50 was 4.37 µM and the TGI was more than 100 µM.

Regarding `COc1cc(Cn2cc3c(c2)-c2oncc2CC3)cc(OC)c1OC`, the GI50 is 0.0716 µM and the TGI is more than 100 µM.

On to `COc1ccc(C(=O)/C=C/c2ccc(Cl)cc2)cc1S(=O)(=O)Nc1c(N)nc(SC)[nH]c1=O`, for which the GI50 is 1.63 µM and the TGI was determined as 3.22 µM.

Turning to `CC(C)(C(=O)NN)c1ccccc1`, the TGI was more than 100 µM.

Turning to `COc1ccc(Cn2nc(-c3cc(OC)c(OC)c(OC)c3)c3c2CCc2cnoc2-3)cc1OC`, the GI50 is 3.02 µM and the TGI was more than 100 µM.

For the compound `O=C1C(Cl)=C(N/N=c2/[nH][nH]/c(=N/NC3=C(Cl)C(=O)c4ccccc4C3=O)c3ccccc23)C(=O)c2ccccc21`, the GI50 is 15.3 µM and the TGI turned out to be 29.9 µM.

Another assay relates to HCT-116 colon. In words: NCI anticancer screen, dose series, 48 h.
Turning to `O=c1cc(CNc2cc(F)cc(F)c2)c2ccc(I)cc2[nH]1`, the GI50 was 0.492 µM and the TGI is more than 100 µM.

In the case of `CCCN(Cc1ccc(F)cc1)c1ccc(CO)c(Cl)c1`, the GI50 was 0.138 µM and the TGI was determined as 3.86 µM.

Regarding `CCN=C1C=CC(=C(c2ccc(N(C)C)cc2)c2ccc(N(C)C)cc2)c2ccccc21`, the GI50 is 0.0358 µM and the TGI was 0.174 µM.

Compound `Nc1ncnc2c1ccn2C1OC2COP(=O)(O)OC2C1O` (stereo not given) returned a TGI of 10.4 µM.

Turning to `Cc1cc(N2CCCCC2)nc(N(CCNc2ccnc3cc(Cl)ccc23)Cc2ccco2)n1`, the GI50 is 1.41 µM and the TGI was found to be 2.84 µM.

Take `O=C(O)[C@@H]1C2CC([C@@H]1C(=O)O)[C@H](N1C(=O)CCC1=O)[C@@H]2Br` (stereo not given in full): the TGI is more than 100 µM.

Take `CCOC(=O)c1c2c(n(CC(C)C)c1C)-c1nc[nH]c1C(=O)C2=O`: the GI50 was 5.92 µM and the TGI was found to be 18.8 µM.

Compound `Cn1c(=O)c2[nH]c(/N=N/N3CCN(CCO)CC3)nc2n(C)c1=O` yielded a TGI of more than 100 µM.

In the case of `c1ccc2nc(Cn3c[n+](Cc4ccc5ccccc5n4)c4ccccc43)ccc2c1`, the GI50 was 2.4 µM and the TGI was 12.2 µM.

For the compound `COc1cc2cc(Oc3ccc(NC(=O)Nc4ccc(Cl)c(C(F)(F)F)c4)cc3)c(C)nc2cc1OCCN1CCCCC1`, the GI50 is 1.54 µM and the TGI was found to be 2.98 µM.

With `COc1ccc2c(c1)CCC1C2CCC2(C)C1CCC2(O)CNC(=O)CCCCC1CCSS1` (stereo not given), the GI50 is 9.3 µM and the TGI is more than 100 µM.

For `COc1cc(Cn2cc3c(c2)-c2oncc2CC3)cc(OC)c1OC`, the GI50 is 0.0379 µM and the TGI is more than 100 µM.

With `COc1ccc(C(=O)/C=C/c2ccc(Cl)cc2)cc1S(=O)(=O)Nc1c(N)nc(SC)[nH]c1=O`, the GI50 was 1.56 µM and the TGI came to 2.94 µM.

On to `CC(C)(C(=O)NN)c1ccccc1`, for which the TGI is more than 100 µM.

For `COc1ccc(Cn2nc(-c3cc(OC)c(OC)c(OC)c3)c3c2CCc2cnoc2-3)cc1OC`, the GI50 is 3.63 µM and the TGI worked out at 44 µM.

With `O=C1C(Cl)=C(N/N=c2/[nH][nH]/c(=N/NC3=C(Cl)C(=O)c4ccccc4C3=O)c3ccccc23)C(=O)c2ccccc21`, the GI50 was 14.3 µM and the TGI came to 32.3 µM.
